Test results reported in patent publication US20240076314A1 (priority 2020, published 2024).
Where a SMILES comes first, the peptide text is derived from it. Bridges are numbered along the chain shown (N, C = ends).

Molecular target: human nAChR (hnAChR α1/β1/γ/ε-HEK 293 Recombinant Cell Line) (Homo sapiens, UniProt P02708+Q04844+Q07001)
Experiment: cell-based

human nAChR (hnAChR α1/β1/γ/ε-HEK 293 Recombinant Cell Line), sequence (P02708 whole entry, looked up): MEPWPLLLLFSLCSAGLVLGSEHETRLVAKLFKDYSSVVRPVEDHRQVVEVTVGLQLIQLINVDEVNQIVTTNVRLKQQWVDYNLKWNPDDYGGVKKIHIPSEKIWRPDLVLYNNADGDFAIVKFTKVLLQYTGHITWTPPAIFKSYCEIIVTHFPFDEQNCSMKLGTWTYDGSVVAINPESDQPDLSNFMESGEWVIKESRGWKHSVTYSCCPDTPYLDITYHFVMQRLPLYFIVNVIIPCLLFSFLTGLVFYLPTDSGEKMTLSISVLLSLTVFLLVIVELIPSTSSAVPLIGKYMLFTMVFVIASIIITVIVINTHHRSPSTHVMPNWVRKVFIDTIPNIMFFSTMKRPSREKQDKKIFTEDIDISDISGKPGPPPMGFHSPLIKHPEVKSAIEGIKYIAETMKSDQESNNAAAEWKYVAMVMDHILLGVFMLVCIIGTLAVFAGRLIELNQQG
human nAChR (hnAChR α1/β1/γ/ε-HEK 293 Recombinant Cell Line), sequence (Q04844 whole entry, looked up): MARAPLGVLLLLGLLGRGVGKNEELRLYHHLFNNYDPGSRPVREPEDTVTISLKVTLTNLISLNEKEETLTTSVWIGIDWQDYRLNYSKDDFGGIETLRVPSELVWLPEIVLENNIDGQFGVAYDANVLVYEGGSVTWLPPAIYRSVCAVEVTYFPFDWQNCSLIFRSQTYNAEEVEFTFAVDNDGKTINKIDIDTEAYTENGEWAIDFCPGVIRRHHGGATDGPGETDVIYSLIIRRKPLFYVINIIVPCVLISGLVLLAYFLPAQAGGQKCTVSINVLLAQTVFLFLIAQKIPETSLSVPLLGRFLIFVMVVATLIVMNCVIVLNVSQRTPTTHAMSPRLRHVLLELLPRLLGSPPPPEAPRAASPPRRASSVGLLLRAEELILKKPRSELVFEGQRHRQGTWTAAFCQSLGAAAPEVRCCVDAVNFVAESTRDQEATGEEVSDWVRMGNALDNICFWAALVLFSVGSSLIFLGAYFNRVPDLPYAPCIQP
human nAChR (hnAChR α1/β1/γ/ε-HEK 293 Recombinant Cell Line), sequence (Q07001 whole entry, looked up): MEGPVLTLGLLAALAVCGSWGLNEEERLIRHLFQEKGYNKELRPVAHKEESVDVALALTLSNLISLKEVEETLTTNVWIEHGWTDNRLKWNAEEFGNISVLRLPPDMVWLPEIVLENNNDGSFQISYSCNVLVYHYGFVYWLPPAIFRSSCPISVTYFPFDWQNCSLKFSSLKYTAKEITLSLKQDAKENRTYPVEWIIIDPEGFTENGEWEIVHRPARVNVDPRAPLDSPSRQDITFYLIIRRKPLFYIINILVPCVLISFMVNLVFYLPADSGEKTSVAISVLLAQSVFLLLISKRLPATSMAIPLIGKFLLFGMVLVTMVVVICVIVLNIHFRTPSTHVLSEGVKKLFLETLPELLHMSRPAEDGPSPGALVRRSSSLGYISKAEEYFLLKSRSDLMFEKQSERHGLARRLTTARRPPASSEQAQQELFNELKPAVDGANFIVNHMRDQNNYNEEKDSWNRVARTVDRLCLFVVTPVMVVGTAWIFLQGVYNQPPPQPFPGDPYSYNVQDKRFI

Structure (SMILES): CC(=O)N[C@H]1CSSC[C@@H]2NC(=O)[C@H](C)NC(=O)[C@@H]3CCCN3C(=O)[C@H](CC(N)=O)NC(=O)[C@H](CSSC[C@@H](C(N)=O)NC(=O)[C@H](CCCCN)NC(=O)[C@H](Cc3ccc(O)cc3)NC(=O)[C@H](CC(N)=O)NC(=O)[C@H](CCCCN)NC(=O)CNC2=O)NC1=O [SEQ ID NO: 62, Ac-Cys-Cys-Asn-Pro-Ala-Cys-Gly-Lys-Asn-Tyr-Lys-Cys-NH2] (Ac-CCNPACGKNYKC-NH2; disulfide 1-6, 2-12)
- IC50: > 100 nM

Structure (SMILES): CC(=O)N[C@H]1CSSC[C@@H]2NC(=O)[C@H](C)NC(=O)[C@@H]3CCCN3C(=O)[C@H](CC(N)=O)NC(=O)[C@H](CSSC[C@@H](C(N)=O)NC(=O)[C@H](CO)NC(=O)[C@H](Cc3ccc(O)cc3)NC(=O)[C@H](CC(N)=O)NC(=O)[C@H](CCCCN)NC(=O)CNC2=O)NC1=O [SEQ ID NO: 60, Ac-Cys-Cys-Asn-Pro-Ala-Cys-Gly-Lys-Asn-Tyr-Ser-Cys-NH2] (Ac-CCNPACGKNYSC-NH2; disulfide 1-6, 2-12)
- IC50: > 100 nM
